According to US20030170218A1, “Fungicide and method for producing the same” (Biobank Co., Ltd., priority 2002, published 2003):

Assays:
[1] = system: enterohemorrhagic E. coli O-157; conditions: Japanese Patent Laid-Open No. 300284/2000; cited from earlier work
Rosellinia necatrix = experiment: Agar dilution method on potato dextrose agar; format: cell-based; conditions: 2 mL sample + 18 mL potato dextrose agar
Helicobasidium mompa = experiment: Agar dilution method on potato dextrose agar; format: cell-based; conditions: 2 mL sample + 18 mL potato dextrose agar
Fusarium oxysporum = experiment: Agar dilution method on potato dextrose agar; format: cell-based; conditions: 2 mL sample + 18 mL potato dextrose agar
Pythium graminicola = experiment: Agar dilution method on potato dextrose agar; format: cell-based; conditions: 2 mL sample + 18 mL potato dextrose agar
Trichophyton rubrum = experiment: Agar dilution method, colony growth on sample plate; format: cell-based; conditions: T. rubrum, 28° C., 12 days; for Diameter of the colony: 2 mL sample + 18 mL Sabourand agar medium, 5 mm colony disk; for Antifungal activity: 100-[(x-5)/(y-5)x100] vs standard plate, 2 mL sample + 18 mL medium
[2] = system: Trichophyton mentagrophytes; experiment: as above; format: cell-based; conditions: T. mentagrophytes, 28° C., 12 days; for Diameter of the colony: 2 mL sample + 18 mL Sabourand agar medium, 5 mm colony disk; for Antifungal activity: 100-[(x-5)/(y-5)x100] vs standard plate, 2 mL sample + 18 mL medium
pH measurement = format: physicochemical; conditions: sample plate: 2 mL sample + 18 mL Sabourand agar medium

PH of the Medium (pH measurement)	SMILES	Diameter of the colony (Trichophyton rubrum) [mm]	Antifungal activity (Trichophyton rubrum) [%]	Diameter of the colony [2] [mm]	Antifungal activity [2] [%]	other results
	O=C(O)C(O)Cc1ccccc1 (stereo not shown) [phenyllactic acid]					antibacterial activity [1]: strong antibacterial activity
	O=C([O-])c1ccccc1C(=O)O.[K+] [Comparative Example 12, potassium hydrogen phthalate]					Diameter of the colony (Rosellinia necatrix; […]): 70.3 ± 0.0 mm; Antifungal activity (Rosellinia necatrix; vs standard plate): 5%; Diameter of the colony (Helicobasidium mompa; […]): 8.1 ± 0.7 mm; Antifungal activity (Helicobasidium mompa; vs standard plate): 95%; Diameter of the colony (Fusarium oxysporum; […]): 54.1 ± 4.1 mm; Antifungal activity (Fusarium oxysporum; vs standard plate): 5%; Diameter of the colony (Pythium graminicola; […]): 13.1 ± 0.6 mm; Antifungal activity (Pythium graminicola; vs standard plate): 88%
2.91	O=C(O)CC(=O)O [Comp. Ex. 6, malonic acid]	5.5 ± 0.0	99	5.5 ± 0.0	99	
	O=C(O)CC(O)(CC(=O)O)C(=O)O [Comp. Ex. 3, citric acid]	26.5 ± 1.5	44	14.8 ± 0.7	80	
3.46	CC(O)C(=O)O (stereo not shown) [Comp. Ex. 7, lactic acid]	18.0 ± 5.0	66	17.7 ± 1.4	74	
4.30	O=C(O)C(=O)O [Comp. Ex. 5, oxalic acid]	36.5 ± 1.1	18	17.6 ± 0.1	74	
	O=C([O-])c1ccccc1C(=O)O.[K+] [Comp. Ex. 2, potassium hydrogen phthalate]	21.0 ± 1.5	58	51.1 ± 2.4	6	

SMILES	PH of the Medium (pH measurement)	Diameter of the colony (Trichophyton rubrum) [mm]	Antifungal activity (Trichophyton rubrum) [%]	Diameter of the colony [2] [mm]	Antifungal activity [2] [%]	other results
CC(=O)O [Comp. Ex. 8, acetic acid]	4.12	5.4 ± 0.3	99	5.7 ± 0.3	99	
